This note sets out measurements from patent US7317115B2, “Mandelates salts of substituted tetracyclic tetrahydrofuran derivatives” (Janssen Pharmaceutica, N.V., priority 2001, dated 2008).

Assay type in all cases: physicochemical
A short description of series [1]: Crystallographic stability (TGA, DSC, IR after storage). As to IR: key: ~Ref: identical with reference. As to conditions: for crystallographic stability: storage two weeks under different relative humidities. As to the method:
The stability of the crystal structure of the salt is studied after storage of the compounds for a period of two weeks at room temperature (RT) under either 5%, 75% and 25° C./60% relative humidity (RH). The samples are analyzed with thermogravimetry (TGA), differential scanning calorimetry (DSC) and infrared spectroscopy (IR).

A short description of series [2]: Chemical stability (HPLC and visual inspection after storage). As to conditions: for HPLC Sum of impurities: in % (unit assumed); for chemical stability: storage 2, 4 and 8 weeks under different conditions. As to the method:
In the chemical stability test program the salts are stored for periods of 2, 4 and 8 weeks under different conditions. These conditions are 40° C./75% RH, 50° C., daylight, RT/5% RH, RT/75% RH, 25° C./60% RH and artificial light. The mandelate salt and the ditoluoyltartrate salt are also stored 8 hours in 0.3 da ICH light. The compounds are analyzed after storage by HPLC and by visual inspection.

A short description of series [3]: Adsorption and desorption of water. As to conditions: 25° C., different relative humidity. As to the method:
The adsorption and desorption of water at 25° C. at different conditions of relative humidity is investigated on an amount of ±10 mg of each salt. The weight change as a function of relative humidity is registered.

Where [4] appears, read: 0.3 da ICH light (2 weeks column; text: 8 hours).

Entries after “also recorded” stand apart in the source; their conditions may differ.

As to `CNCC1CC2c3ccccc3Cc3ccc(F)cc3C2O1.O=C(O)C(O)c1ccccc1` (single isomer, unassigned) [Compound 1, B-(2α,3aα,12bβ)-11-fluoro-3,3a,8,12b-tetrahydro-N-methyl-2H-dibenzo-[3,4:6,7]cyclohepta[1,2-b]furan-2 methanamine], the Appearance result was “white” in series [1] (0 days); “white” in series [1] (two weeks, 25° C./60% RH); “white” in series [1] (two weeks, RT/75% RH); “white” in series [1] (two weeks, RT/<5% RH); “white” in series [2] (setting [4]); “white” in series [2] (25° C./60% RH, 4 weeks). Besides, the Appearance entry is listed as “white” in series [2] (25° C./60% RH, 8 weeks); “white” in series [2] (40° C./75% RH, 2 weeks); “white” in series [2] (40° C./75% RH, 4 weeks); “white” in series [2] (40° C./75% RH, 8 weeks); “white” in series [2] (50° C., 2 weeks); “white” in series [2] (50° C., 4 weeks). Besides, the Appearance result in series [2] (50° C., 8 weeks) is recorded as “white”; in series [2] (Artificial light (2 weeks)) it was “white”; in series [2] (Daylight, 2 weeks), “white”; in series [2] (Daylight, 4 weeks), “white”; in series [2] (Daylight, 8 weeks), “white”; in series [2] (RT/75% RH, 4 weeks), “white”. Also, the Appearance result in series [2] (RT/75% RH, 8 weeks) is reported as “white”; in series [2] (RT/<5% RH, 4 weeks) it was “white”; in series [2] (RT/<5% RH, 8 weeks), “white”; in series [2] (Reference (2 weeks)) it was “white”. For the same compound, the “DSC Max” value was found to be 229.5 °C in series [1] (0 days); 229.1 °C in series [1] (two weeks, 25° C./60% RH); 229.4 °C in series [1] (two weeks, RT/75% RH); 229.1 °C in series [1] (two weeks, RT/<5% RH). The “DSC ΔH” value in series [1] (0 days) is recorded as 141.1 J/g; in series [1] (two weeks, 25° C./60% RH), 139.0 J/g; in series [1] (two weeks, RT/75% RH), 137.6 J/g; in series [1] (two weeks, RT/<5% RH), 140.2 J/g. Moreover, the TGA <100° C. in series [1] (0 days) was determined as 0.1%; in series [1] (two weeks, 25° C./60% RH) it was 0.1%; in series [1] (two weeks, RT/75% RH), 0.1%; in series [1] (two weeks, RT/<5% RH), 0.1%. In addition, the crystallographic stability result is “crystallographically and chemically stable” in series [1] (listed as mandelate salt); “crystallographic stable” in series [1] (listed as mandelic acid salt). For the same compound, the IR result was “~Ref” in series [1] (two weeks, 25° C./60% RH); “~Ref” in series [1] (two weeks, RT/75% RH); “~Ref” in series [1] (two weeks, RT/<5% RH). Further, the “HPLC Sum of impurities” value in series [2] (setting [4]) was 1.70; in series [2] (25° C./60% RH, 4 weeks) it was 1.71; in series [2] (25° C./60% RH, 8 weeks) it was 1.69; in series [2] (40° C./75% RH, 2 weeks), 1.73; in series [2] (40° C./75% RH, 4 weeks) it was 1.73; in series [2] (40° C./75% RH, 8 weeks), 1.70. The “HPLC Sum of impurities” value in series [2] (50° C., 2 weeks) was determined as 1.74; in series [2] (50° C., 4 weeks), 1.75; in series [2] (50° C., 8 weeks) it was 1.70; in series [2] (Artificial light (2 weeks)) it was 1.70; in series [2] (Daylight, 2 weeks), 1.73; in series [2] (Daylight, 4 weeks), 1.71. Besides, the “HPLC Sum of impurities” value was found to be 1.72 in series [2] (Daylight, 8 weeks); 1.75 in series [2] (RT/75% RH, 4 weeks); 1.76 in series [2] (RT/75% RH, 8 weeks); 1.73 in series [2] (RT/<5% RH, 4 weeks); 1.72 in series [2] (RT/<5% RH, 8 weeks); 1.72 in series [2] (Reference (2 weeks)). For the same compound, the chemical stability entry in series [2] (listed as mandelate salt) is “chemically stable in all investigated conditions; also recorded: crystallographically and chemically stable”. Further, the “water adsorption/desorption behaviour (weight change as a function of relative humidity)” value in series [3] (listed as mandelate salt) was “stable towards moisture uptake over the whole range of humidity; also recorded: good adsorption/desorption profile”.
Turning to “B-(2α,3aα,12bβ)-11-fluoro-3,3a,8,12b-tetrahydro-N-methyl-2H-dibenzo-[3,4:6,7]cyclohepta[1,2-b]furan-2 methanamine [Citrate]”, the Appearance entry in series [1] (0 days) is listed as “yellowish”; in series [1] (two weeks, RT/75% RH), “liquefied”; in series [2] (40° C./75% RH, 2 weeks) it was “liquefied”; in series [2] (40° C./75% RH, 4 weeks) it was “liquefied”; in series [2] (40° C./75% RH, 8 weeks) it was “liquefied”; in series [2] (50° C., 2 weeks), “ochre-”. In addition, the Appearance entry in series [2] (50° C., 4 weeks) was “ochre-”; in series [2] (50° C., 8 weeks) it was “orange-”; in series [2] (Artificial light (2 weeks)) it was “ochre-”; in series [2] (Daylight, 2 weeks), “ochre-”; in series [2] (Daylight, 4 weeks), “ochre-”; in series [2] (Daylight, 8 weeks) it was “orange-”. For the same compound, the Appearance entry in series [2] (RT/75% RH, 4 weeks) is given as “liquefied”; in series [2] (RT/75% RH, 8 weeks), “liquefied”; in series [2] (Reference (2 weeks)), “yellow”. Further, in series [1] (0 days), the “DSC Max” value is on record as “amorphous”. In addition, in series [1] (listed as citrate salt), the crystallographic stability result is “amorphous and liquefies at RT/75% RH”. Moreover, the “HPLC Sum of impurities” value in series [2] (40° C./75% RH, 2 weeks) amounted to 4.83; in series [2] (40° C./75% RH, 4 weeks), 7.91; in series [2] (40° C./75% RH, 8 weeks) it was 10.62; in series [2] (50° C., 2 weeks) it was 6.29; in series [2] (50° C., 4 weeks), 7.47; in series [2] (50° C., 8 weeks), 9.07. Further, the “HPLC Sum of impurities” value was determined as 8.99 in series [2] (Artificial light (2 weeks)); 5.81 in series [2] (Daylight, 2 weeks); 5.99 in series [2] (Daylight, 4 weeks); 6.31 in series [2] (Daylight, 8 weeks); 4.69 in series [2] (RT/75% RH, 4 weeks); 4.98 in series [2] (RT/75% RH, 8 weeks). In series [2] (Reference (2 weeks)), the “HPLC Sum of impurities” value is on record as 4.76. In addition, in series [2] (listed as citrate salt), the chemical stability result was “shows degradation in all investigated conditions; also recorded: chemically not stable”. In addition, the “water adsorption/desorption behaviour (weight change as a function of relative humidity)” value in series [3] (listed as citrate salt) was “hygroscopic and liquefies at high relative humidity”.
`CNCC1CC2c3ccccc3Cc3ccc(F)cc3C2O1.O=C(O)CCC(=O)O` (single isomer, unassigned) [succinate salt, B-(2α,3aα,12bβ)-11-fluoro-3,3a,8,12b-tetrahydro-N-methyl-2H-dibenzo-[3,4:6,7]cyclohepta[1,2-b]furan-2 methanamine]: in series [3], the “water adsorption/desorption behaviour (weight change as a function of relative humidity)” value is listed as “less stable but the weight change as a function of the relative humidity is very small”.
The same measure, in the same setting: then `CNCC1CC2c3ccccc3Cc3ccc(F)cc3C2O1.O=C(O)CC(=O)O` (single isomer, unassigned) [malonate salt, B-(2α,3aα,12bβ)-11-fluoro-3,3a,8,12b-tetrahydro-N-methyl-2H-dibenzo-[3,4:6,7]cyclohepta[1,2-b]furan-2 methanamine], with “less stable but the weight change as a function of the relative humidity is very small”.
